Read-outs that look alike come from different tables or passages of the source.
Assays:
Test in all cases: Poison Plate Assay
Assay type in all cases: cell-based
[1] = test system: Trichoderma viride CBS189.79; details: CBS189, 336 h
Method: (§1) • Name of component: sodium pyrithione (I-a) • PEI 1300 (II-a) having an average molecular weight of approximately 1300 • PEI 70000 (II-b) having an average molecular weight of approximately 70000 • PEI 750000 (II-c) having an average molecular weight of approximately 750000 • Test models: Fungi: to each well of a 24-well microtiter plate, 1000 μl of a rich (Potato Dextrose Agar, PDA: 4 g potato infusion, 20 g bacto dextrose and 15 g bacto agar in 1 liter deionised water) containing the appropriate combination of the test compounds in one of the concentrations of a dose series is added. The nutrient medium is inoculated with the test fungi by adding a spore/mycelium suspension (10 μl) or a small piece of agar from the margin of an actively growing colony and incubated under dark at 27° C. with 70% relative humidity. The growth of the fungi is evaluated after two weeks. • Concentrations: a 24-step doses series is applied, each step being 0.75 times the previous step, as follows: 25.00−18.75 . . . 0.04−0.03 ppm • Test combinations:
(§2) A. G. Nass (1957) “Some aspects of the notions additivity, synergism and antagonism in the simultaneous activity of two antibacterial agents in vitro” Arch. intern. Pharmacodynamie 109: 211-228; Steinberg, D. C. (2000) “Measuring synergy” cosmetics & Toiletries 115(11): 59-62; which is calculated as follows for two compounds A and B: […]
(§3) When the SI is equal to 1.0, additivity is indicated. […].

[2] = test system: Aspergillus niger CBS554.65; details: CBS554, 336 h, read-out: MIC-values in ppm
Method: as §1, §2, §3

[3] = test system: Colletotrichum musae MUCL nr2; details: MUCLNR2, 336 h
Method: as §1, §2, §3

[4] = test system: Humicola grisea MG28; details: Mycothermus thermophilus, MG28, 336 h, read-out: MIC-values in ppm
Method: as §1, §2, §3

[5] = read-out: MIC-values in ppm, Table 1, (I-a) with PEI 1300 (II-a), PDA, 27° C., growth evaluated after two weeks
[6] = read-out: MIC-values in ppm, Table 2, (I-a) with PEI 70000 (II-b), PDA, 27° C., growth evaluated after two weeks

Work on [O-][n+]1ccccc1S [I-a, sodium pyrithione] yielded an MIC [1, 5] of 1.06 µg/mL, an MIC [1, 6] of 1.06 µg/mL and an MIC ([1]; read-out: MIC-values in ppm, Table 3, (I-a) with PEI 750000 (II-c), PDA, 27° C., growth evaluated after two weeks) of 0.59 µg/mL. For the same compound, the MIC [2] was 0.25 µg/mL, the MIC [3, 5] was 0.06 µg/mL and the MIC [3, 6] was 0.08 µg/mL. It also gave an MIC [4] of 0.45 µg/mL.
